pIC50: −log10 of the molar value. Where a SMILES comes first, the peptide text is derived from it. Bridges are numbered along the chain shown (N, C = ends). [ ]: non-standard residue; d: D form. The star is where a group is joined. hPhe(3-Cl-4-CF3) = N[C@@H](CCc1ccc(C(F)(F)F)c(Cl)c1)C(=O)O; NPrPhe(4-CF3) = CCCN[C@@H](Cc1ccc(C(F)(F)F)cc1)C(=O)O; Pro(4-spirocPr) = O=C(O)[C@@H]1CC2(CC2)CN1; Abu(4,4,4-F3) = N[C@@H](CC(F)(F)F)C(=O)O; Morpholine(3S-CO) = O=C(O)[C@@H]1COCCN1; Pip(4,4-F2) = O=C(O)[C@@H]1CC(F)(F)CCN1; NMeGly(cPent) = CN[C@H](C(=O)O)C1CCCC1; Gly(cPent) = N[C@H](C(=O)O)C1CCCC1; Hyp = O=C(O)[C@@H]1C[C@@H](O)CN1; Gly(cBu) = N[C@H](C(=O)O)C1CCC1; NMeD = CN[C@@H](CC(=O)O)C(=O)O; NMeL = CN[C@@H](CC(C)C)C(=O)O; Pip = O=C(O)[C@@H]1CCCCN1; Morpholide = C1CN(*)CCO1; NMeA = CN[C@@H](C)C(=O)O; Ac5c = NC1(C(=O)O)CCCC1; Aze = O=C(O)[C@@H]1CCN1; NcPrGly = O=C(O)CNC1CC1; Abu = CC[C@H](N)C(=O)O; NPrGly = CCCNCC(=O)O; Sar = CNCC(=O)O
Legend:
[1] = target: GDP-bound NRAS wild-type protein (Homo sapiens, UniProt P01111); test: Binding to NRAS by surface plasmon resonance (SPR), KD and KD ratio to KRAS; details: ratio of KD for GDP-bound NRAS wild-type protein to KD for KRAS
In short: (§1)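 Each cycle, GDP-bound biotin-Avi RAS was captured (~100–300 RU), compound concentrations were injected low to high for 75 s each at 100 µL/min, then the chip was regenerated. Buffer: HBS pH 7.4, 10 mM MgCl2, 10 µM GDP, 1 mM DTT, 4% DMSO; 30°C. KD from a 1:1 binding model.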

HRAS wild-type protein = HRAS wild-type protein (Homo sapiens, UniProt P01112); test: Binding to HRAS by surface plasmon resonance (SPR), KD and KD ratio to KRAS; details: ratio of KD for HRAS wild-type protein to KD for KRAS
In short: as §1

[2] = tested on: human lung cancer strain NCI-H441; assay type: cell-based
In short: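 Signal came from […] measured per well once the reagent was added. Beforehand, cells were cultured at 37°C and 5% carbon dioxide on a compound series serially diluted in dimethyl sulfoxide.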

HRAS wild-type protein, sequence (P01112 whole entry): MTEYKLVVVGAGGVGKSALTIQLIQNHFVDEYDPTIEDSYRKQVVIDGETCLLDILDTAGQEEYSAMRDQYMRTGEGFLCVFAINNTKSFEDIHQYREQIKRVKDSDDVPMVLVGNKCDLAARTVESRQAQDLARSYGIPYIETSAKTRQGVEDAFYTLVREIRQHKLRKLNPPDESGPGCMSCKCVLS
GDP-bound NRAS wild-type protein, sequence (P01111 whole entry): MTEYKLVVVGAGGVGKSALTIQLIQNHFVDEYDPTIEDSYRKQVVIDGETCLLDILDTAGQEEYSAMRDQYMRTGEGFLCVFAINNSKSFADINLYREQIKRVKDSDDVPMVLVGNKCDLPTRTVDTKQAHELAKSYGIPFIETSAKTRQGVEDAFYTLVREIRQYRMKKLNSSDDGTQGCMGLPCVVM

Row | Compound | NRAS /KRAS [1] | HRAS /KRAS (HRAS wild-type protein) | pIC50 [2]
1 | CCCN1C(=O)CN(C)C(=O)CN(C)C(=O)[C@H]([C@@H](C)CC)NC(=O)[C@H](CC(C)C)N(C)C(=O)C[C@@H](C(=O)N2CCOCC2)N(C)C(=O)[C@H](C2CCCC2)N(C)C(=O)C2(CCCC2)NC(=O)[C@@H]2CCN2C(=O)[C@H](CCc2ccc(C(F)(F)F)c(Cl)c2)NC(=O)CN(C)C(=O)[C@@H]1Cc1ccc(C(F)(F)F)cc1 [PP0260] ([NMeL]I[Sar][Sar][NPrPhe(4-CF3)][Sar][hPhe(3-Cl-4-CF3)][Aze][Ac5c][NMeGly(cPent)][NMeD]-Morpholide; lactam N-11) | B (a compound having 3 or more and less than 10 is denoted as B) | C (A compound having a KD ratio of 0.1 or more and less than 3 is denoted as C) | 7.77
2 | CCCN1C(=O)CN(C)C(=O)CN(C)C(=O)[C@H]([C@@H](C)CC)NC(=O)[C@H](CC(C)C)N(C)C(=O)C[C@@H](C(=O)N2CCOCC2)N(C)C(=O)[C@H](C2CCCC2)N(C)C(=O)C2(CCCC2)NC(=O)[C@@H]2CC3(CC3)CN2C(=O)[C@H](CCc2ccc(C(F)(F)F)c(Cl)c2)NC(=O)CN(C)C(=O)[C@@H]1Cc1ccc(C(F)(F)F)cc1 [PP0261] ([NMeL]I[Sar][Sar][NPrPhe(4-CF3)][Sar][hPhe(3-Cl-4-CF3)][Pro(4-spirocPr)][Ac5c][NMeGly(cPent)][NMeD]-Morpholide; lactam N-11) | B (a compound having 3 or more and less than 10 is denoted as B) | C (A compound having a KD ratio of 0.1 or more and less than 3 is denoted as C) | 8.34
3 | CCCN1C(=O)CN(C)C(=O)CN(C)C(=O)[C@H]([C@@H](C)CC)NC(=O)[C@H](CC(C)C)N(C)C(=O)C[C@@H](C(=O)N2CCOCC2)N(C)C(=O)[C@H](C2CCCC2)N(C)C(=O)C2(CCCC2)NC(=O)[C@@H]2C[C@@H](OC)CN2C(=O)[C@H](CCc2ccc(C(F)(F)F)c(Cl)c2)NC(=O)CN(C)C(=O)[C@@H]1Cc1ccc(C(F)(F)F)cc1 [PP0262] ([NMeL]I[Sar][Sar][NPrPhe(4-CF3)][Sar][hPhe(3-Cl-4-CF3)][Hyp](Me)[Ac5c][NMeGly(cPent)][NMeD]-Morpholide; lactam N-11) | B (a compound having 3 or more and less than 10 is denoted as B) | B (a compound having 3 or more and less than 10 is denoted as B) | 8.72
4 | CCCN1C(=O)CN(C)C(=O)CN(C)C(=O)[C@H]([C@@H](C)CC)NC(=O)[C@H](CC(C)C)N(C)C(=O)C[C@@H](C(=O)N2CCOCC2)N(C)C(=O)[C@H](C2CCCC2)N(C)C(=O)C2(CCCC2)NC(=O)[C@@H]2CCCCN2C(=O)[C@H](CCc2ccc(C(F)(F)F)c(Cl)c2)NC(=O)CN(C)C(=O)[C@@H]1Cc1ccc(C(F)(F)F)cc1 [PP0263] ([NMeL]I[Sar][Sar][NPrPhe(4-CF3)][Sar][hPhe(3-Cl-4-CF3)][Pip][Ac5c][NMeGly(cPent)][NMeD]-Morpholide; lactam N-11) | B (a compound having 3 or more and less than 10 is denoted as B) | C (A compound having a KD ratio of 0.1 or more and less than 3 is denoted as C) | 7.72
5 | CCCN1C(=O)CN(C)C(=O)CN(C)C(=O)[C@H]([C@@H](C)CC)NC(=O)[C@H](CC(C)C)N(C)C(=O)C[C@@H](C(=O)N2CCOCC2)N(C)C(=O)[C@H](C2CCCC2)N(C)C(=O)C2(CCCC2)NC(=O)[C@@H]2CC(F)(F)CCN2C(=O)[C@H](CCc2ccc(C(F)(F)F)c(Cl)c2)NC(=O)CN(C)C(=O)[C@@H]1Cc1ccc(C(F)(F)F)cc1 [PP0264] ([NMeL]I[Sar][Sar][NPrPhe(4-CF3)][Sar][hPhe(3-Cl-4-CF3)][Pip(4,4-F2)][Ac5c][NMeGly(cPent)][NMeD]-Morpholide; lactam N-11) | B (a compound having 3 or more and less than 10 is denoted as B) | C (A compound having a KD ratio of 0.1 or more and less than 3 is denoted as C) | 7.79
6 | CCCN1C(=O)CN(C)C(=O)CN(C)C(=O)[C@H]([C@@H](C)CC)NC(=O)[C@H](CC(C)C)N(C)C(=O)C[C@@H](C(=O)N2CCOCC2)N(C)C(=O)[C@H](C2CCCC2)N(C)C(=O)C2(CCCC2)NC(=O)[C@@H]2COCCN2C(=O)[C@H](CCc2ccc(C(F)(F)F)c(Cl)c2)NC(=O)CN(C)C(=O)[C@@H]1Cc1ccc(C(F)(F)F)cc1 [PP0265] ([NMeL]I[Sar][Sar][NPrPhe(4-CF3)][Sar][hPhe(3-Cl-4-CF3)][Morpholine(3S-CO)][Ac5c][NMeGly(cPent)][NMeD]-Morpholide; lactam N-11) | B (a compound having 3 or more and less than 10 is denoted as B) | C (A compound having a KD ratio of 0.1 or more and less than 3 is denoted as C) | 7.88
7 | CCCN1CC(=O)NC2(CCCC2)C(=O)N(C)[C@@H](C2CCCC2)C(=O)N(C)[C@H](C(=O)N2CCOCC2)CC(=O)N(C)[C@@H](CC(C)C)C(=O)N[C@@H]([C@@H](C)CC)C(=O)N(C)CC(=O)N(C)CC(=O)N(CCC)[C@@H](Cc2ccc(C(F)(F)F)cc2)C(=O)N(C)CC(=O)N[C@@H](CCc2ccc(C(F)(F)F)c(Cl)c2)C1=O [PP0267] ([NMeL]I[Sar][Sar][NPrPhe(4-CF3)][Sar][hPhe(3-Cl-4-CF3)][NPrGly][Ac5c][NMeGly(cPent)][NMeD]-Morpholide; lactam N-11) | B (a compound having 3 or more and less than 10 is denoted as B) | B (a compound having 3 or more and less than 10 is denoted as B) | 7.42
8 | CCCN1C(=O)[C@@H]2CCN2C(=O)[C@H](C)N(C)C(=O)[C@H](CC)NC(=O)[C@H](CC(C)C)N(C)C(=O)C[C@@H](C(=O)N2CCOCC2)N(C)C(=O)[C@H](C2CCCC2)N(C)C(=O)C2(CCCC2)NC(=O)[C@@H]2CCCN2C(=O)[C@H](CCc2ccc(C(F)(F)F)c(Cl)c2)NC(=O)CN(C)C(=O)[C@@H]1Cc1ccc(C(F)(F)F)cc1 [PP0269] ([NMeL][Abu][NMeA][Aze][NPrPhe(4-CF3)][Sar][hPhe(3-Cl-4-CF3)]P[Ac5c][NMeGly(cPent)][NMeD]-Morpholide; lactam N-11) | C (A compound having a KD ratio of 0.1 or more and less than 3 is denoted as C) | B (a compound having 3 or more and less than 10 is denoted as B) | 7.46
9 | CCCN1C(=O)[C@@H]2CCN2C(=O)[C@H](C)N(C)C(=O)[C@H](CC(F)(F)F)NC(=O)[C@H](CC(C)C)N(C)C(=O)C[C@@H](C(=O)N2CCOCC2)N(C)C(=O)[C@H](C2CCCC2)N(C)C(=O)C2(CCCC2)NC(=O)[C@@H]2CCCN2C(=O)[C@H](CCc2ccc(C(F)(F)F)c(Cl)c2)NC(=O)CN(C)C(=O)[C@@H]1Cc1ccc(C(F)(F)F)cc1 [PP0270] ([NMeL][Abu(4,4,4-F3)][NMeA][Aze][NPrPhe(4-CF3)][Sar][hPhe(3-Cl-4-CF3)]P[Ac5c][NMeGly(cPent)][NMeD]-Morpholide; lactam N-11) | C (A compound having a KD ratio of 0.1 or more and less than 3 is denoted as C) | B (a compound having 3 or more and less than 10 is denoted as B) | 8.07
10 | CCCN1C(=O)[C@@H]2CCN2C(=O)[C@H](C)N(C)C(=O)[C@H](C2CCC2)NC(=O)[C@H](CC(C)C)N(C)C(=O)C[C@@H](C(=O)N2CCOCC2)N(C)C(=O)[C@H](C2CCCC2)N(C)C(=O)C2(CCCC2)NC(=O)[C@@H]2CCCN2C(=O)[C@H](CCc2ccc(C(F)(F)F)c(Cl)c2)NC(=O)CN(C)C(=O)[C@@H]1Cc1ccc(C(F)(F)F)cc1 [PP0271] ([NMeL][Gly(cBu)][NMeA][Aze][NPrPhe(4-CF3)][Sar][hPhe(3-Cl-4-CF3)]P[Ac5c][NMeGly(cPent)][NMeD]-Morpholide; lactam N-11) | C (A compound having a KD ratio of 0.1 or more and less than 3 is denoted as C) | B (a compound having 3 or more and less than 10 is denoted as B) | 8.19
11 | CCCN1C(=O)[C@@H]2CCN2C(=O)[C@H](C)N(C)C(=O)[C@H](C2CCCC2)NC(=O)[C@H](CC(C)C)N(C)C(=O)C[C@@H](C(=O)N2CCOCC2)N(C)C(=O)[C@H](C2CCCC2)N(C)C(=O)C2(CCCC2)NC(=O)[C@@H]2CCCN2C(=O)[C@H](CCc2ccc(C(F)(F)F)c(Cl)c2)NC(=O)CN(C)C(=O)[C@@H]1Cc1ccc(C(F)(F)F)cc1 [PP0272] ([NMeL][Gly(cPent)][NMeA][Aze][NPrPhe(4-CF3)][Sar][hPhe(3-Cl-4-CF3)]P[Ac5c][NMeGly(cPent)][NMeD]-Morpholide; lactam N-11) | C (A compound having a KD ratio of 0.1 or more and less than 3 is denoted as C) | B (a compound having 3 or more and less than 10 is denoted as B) | 8.43
12 | CCCN1C(=O)[C@@H]2CCN2C(=O)CN(C2CC2)C(=O)[C@H]([C@@H](C)CC)NC(=O)[C@H](CC(C)C)N(C)C(=O)C[C@@H](C(=O)N2CCOCC2)N(C)C(=O)[C@H](C2CCCC2)N(C)C(=O)C2(CCCC2)NC(=O)[C@@H]2CCCN2C(=O)[C@H](CCc2ccc(C(F)(F)F)c(Cl)c2)NC(=O)CN(C)C(=O)[C@@H]1Cc1ccc(C(F)(F)F)cc1 [PP0273] ([NMeL]I[NcPrGly][Aze][NPrPhe(4-CF3)][Sar][hPhe(3-Cl-4-CF3)]P[Ac5c][NMeGly(cPent)][NMeD]-Morpholide; lactam N-11) | C (A compound having a KD ratio of 0.1 or more and less than 3 is denoted as C) | B (a compound having 3 or more and less than 10 is denoted as B) | 7.91

Source: patent EP4603105A1, “PHARMACEUTICAL COMPOSITION CONTAINING CYCLIC COMPOUND HAVING SELECTIVE KRAS INHIBITORY EFFECT AGAINST HRAS AND NRAS” (CHUGAI SEIYAKU KABUSHIKI KAISHA, priority 2022, dated 2024)
